Laboratory results as given in US20240336630A1, “MAP4K1 INHIBITORS” (Blueprint Medicines Corporation, priority 2021, published 2024).

Target: T1, MAP4K1 (HPK1) (Homo sapiens, UniProt Q92918)
T1 construct: purchased Invitrogen
Test: Inhibition of MAP4K1 biochemical enzymatic activity (EZReader 2 electrophoretic mobility shift)
Conditions: HPK1 (Invitrogen), S6K2tide 1.5 μM, 120 min; ATP 26 μM or 1000 μM, not stated which for Table 3
Excerpt: MAP4K1 (HPK1) and relevant off-target enzymatic activity was monitored using the Perkin Elmer electrophoretic mobility shift technology platform—the EZReader 2. […] Within the linear, steady-state phase of the kinase enzymatic reaction, the mixed pool of phosphorylated (product) and non-phosphorylated (substrate) peptides was passed through the microfluidic system of the PerkinElmer EZ Reader 2, under an applied electric potential difference. The presence of the phosphate group on the product peptide provided a difference in mass and charge between that of the substrate peptide, resulting in a separation of the substrate and product pools in the sample (Perrin et al. 2010). As the product and substrate peptide mixture passes the lasers within the instrument, these pools are detected (λex=488 nm, λem=568 nm) and resolved as separate peaks. The ratio between these peaks reflects the activity of the compound at that concentration, in that well, under those conditions.
Inhibitors were dissolved in 100% DMSO at a stock concentration of 10 mM. A 100×, 10-point, 4-fold serial dilution of each inhibitor was created in 100% DMSO either manually or on a Hamilton STAR liquid handler, starting at a relevant concentration, usually 1 mM. A volume of 0.130 μL of each concentration was transferred to the relevant wells of a 384-well plate (Greiner 781 201) in duplicate using a TTPLabtech Mosquito nano-litre dispenser. Using a Multidrop Combi, the remaining constituents of the kinase reaction were added to the 130 nL of dosed compound as follows (see table below for final reaction details):
Enzyme activity assays at the ^APPKM for ATP or 1 mM ATP: In each well of a 384-well plate, 0.1-15 nM of untreated enzyme was incubated in a total of 13 μL of buffer (100 mM HEPES pH 7.5, 0.015% Brij 35, 10 mM MgCl2, 1 mM DTT) with 1.5 μM fluorescent peptide and 20-1000 μM ATP, at 25° C., for 60-180 minutes in the presence or absence of a dosed concentration series of compound (1% DMSO final concentration). The kinase reactions were stopped by the addition of 70 μl of Stop buffer (100 mM HEPES pH 7.5, 0.015% Brij 35, 35 mM EDTA and 0.2% of Coating Reagent 3 (Caliper Lifesciences)). The plates were read on a Caliper EZReader 2 as described above.

T1 sequence (Q92918 whole entry): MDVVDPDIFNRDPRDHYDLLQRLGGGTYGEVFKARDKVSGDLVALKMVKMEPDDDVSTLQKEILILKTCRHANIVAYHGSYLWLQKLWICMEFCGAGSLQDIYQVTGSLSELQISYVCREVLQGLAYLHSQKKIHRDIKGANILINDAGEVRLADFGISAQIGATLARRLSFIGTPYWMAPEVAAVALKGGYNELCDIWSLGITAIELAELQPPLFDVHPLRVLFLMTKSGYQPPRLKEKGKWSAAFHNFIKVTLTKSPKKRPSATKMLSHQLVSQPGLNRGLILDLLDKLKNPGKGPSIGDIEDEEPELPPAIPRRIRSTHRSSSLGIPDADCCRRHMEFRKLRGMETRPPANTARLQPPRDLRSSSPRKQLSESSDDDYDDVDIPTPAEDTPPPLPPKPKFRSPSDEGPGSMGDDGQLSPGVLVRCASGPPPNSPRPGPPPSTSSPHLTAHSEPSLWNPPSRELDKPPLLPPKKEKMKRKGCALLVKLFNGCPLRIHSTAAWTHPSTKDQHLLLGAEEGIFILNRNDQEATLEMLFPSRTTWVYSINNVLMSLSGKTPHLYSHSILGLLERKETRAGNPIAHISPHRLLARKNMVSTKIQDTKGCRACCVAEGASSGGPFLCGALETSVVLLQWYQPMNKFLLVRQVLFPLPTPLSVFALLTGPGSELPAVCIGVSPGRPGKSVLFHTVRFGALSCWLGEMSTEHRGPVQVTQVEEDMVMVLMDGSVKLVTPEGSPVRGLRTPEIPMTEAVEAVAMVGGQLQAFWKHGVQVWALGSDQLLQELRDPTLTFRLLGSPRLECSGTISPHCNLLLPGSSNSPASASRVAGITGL

| IC50 | SMILES |
| --- | --- |
| 3.75 nM | CC[C@@](C)(O)c1cnc(OCC(F)(F)F)c2cnc(Nc3ccc4c(n3)[C@@H](C)C(C)(C)OC4=O)cc12 (single isomer, unassigned) [Compound 53] |
| 12.3 nM | C[C@@H]1c2nc(Nc3cc4c([C@@](C)(O)C(F)(F)F)cnc(OC5CC5)c4cn3)ccc2C(=O)OC1(C)C (single isomer, unassigned) [Compound 51] |
| 1.57 nM | C[C@@H]1c2nc(Nc3cc4c(C(C)(O)C5CC5)cnc(OCC(F)F)c4cn3)ccc2C(=O)OC1(C)C (stereo partly shown) [Compound 47] |
| 1.19 nM | COc1ncc(C(C)(C)O)c2cc(Nc3ccnc(N4CCC[C@@H]4C)n3)ncc12 [Compound 10] |
| 1.63 nM | COc1ncc(C(C)(C)O)c2cc(Nc3ccnc(N4CC[C@@H]4C)n3)ncc12 [Compound 9] |
| 2.01 nM | C[C@@H]1OC(=O)c2ccc(Nc3cc4c(C(C)(C)O)cnc(OCC5(F)CC5)c4cn3)nc2[C@H]1C [Compound 37] |
| 18.4 nM | COc1ccc(C(C)(C)O)c2cc(Nc3ccnc(C(C)(C)F)n3)ncc12 [Compound 5] |
| 2.38 nM | CC[C@@](C)(O)c1cnc(OC2CC2)c2cnc(Nc3ccc4c(n3)[C@@H](C)C(C)(C)OC4=O)cc12 (single isomer, unassigned) [Compound 30] |
| 16.9 nM | C[C@@H]1c2nc(Nc3cc4c([C@@](C)(O)C5CC5)cnc(OCC(F)(F)F)c4cn3)ccc2C(=O)OC1(C)C (single isomer, unassigned) [Compound 54] |
| 67.3 nM | COC[C@@](C)(O)c1cnc(OC2CC2)c2cnc(Nc3ccc4c(n3)[C@@H](C)[C@H](C)OC4=O)cc12 (single isomer, unassigned) [Compound 35] |
| 0.45 nM | C[C@@H]1OC(=O)c2ccc(Nc3cc4c(C(C)(C)O)cnc(O[C@H]5C[C@@H](S(C)(=O)=O)C5)c4cn3)nc2[C@H]1C [Compound 56] |
| 0.2 nM | C[C@@H]1OC(=O)c2ccc(Nc3cc4c(C(C)(C)O)cnc(OC5CN(S(C)(=O)=O)C5)c4cn3)nc2[C@H]1C [Compound 57, (7S,8R)-2-((5-(2-Hydroxypropan-2-yl)-8-((1-(methylsulfonyl)azetidin-3-yl)oxy)-2,7-naphthyridin-3-yl)amino)-7,8-dimethyl-7,8-dihydro-5H-pyrano[4,3-b]pyridin-5-one] |
| 4.51 nM | C[C@@H]1c2nc(Nc3cc4c([C@@](C)(O)C(F)(F)F)cnc(OC5CC5)c4cn3)ccc2C(=O)OC1(C)C (single isomer, unassigned) [Compound 50] |
| 23.1 nM | CNc1ncc(C(C)(C)O)c2cc(Nc3ccnc(C(C)(C)C)n3)ncc12 [Compound 3] |
| 0.66 nM | CC[C@@](C)(O)c1cnc(O[C@H](C)C[C@@H](C)S(C)(=O)=O)c2cnc(Nc3ccc4c(n3)[C@@H](C)[C@H](C)OC4=O)cc12 (single isomer, unassigned) [Compound 67] |
| 15.9 nM | C[C@@H]1c2nc(Nc3cc4c([C@@](C)(O)C5CC5)cnc(OCC(F)(F)F)c4cn3)ccc2C(=O)OC1(C)C (single isomer, unassigned) [Compound 55] |
| 2.52 nM | CC[C@H](O)c1cnc(OC2CN(S(C)(=O)=O)C2)c2cnc(Nc3ccc4c(n3)[C@@H](C)[C@H](C)OC4=O)cc12 (single isomer, unassigned) [Compound 58] |
| 1.43 nM | CC[C@@](C)(O)c1cnc(NC2CC2)c2cnc(Nc3ccc4c(n3)[C@@H](C)C(C)(C)OC4=O)cc12 (single isomer, unassigned) [Compound 29] |
| 3.03 nM | CC[C@@](C)(O)c1cnc(NC2CC2)c2cnc(Nc3ccc4c(n3)[C@@H](C)C(C)(C)OC4=O)cc12 (single isomer, unassigned) [Compound 28] |
| 4.73 nM | COc1ncc(C(C)(C)O)c2cc(Nc3ccc4c(n3)CCOC4=O)ncc12 [Compound 8] |
| 6.72 nM | C[C@@H]1c2nc(Nc3cc4c([C@@](C)(O)C5CCC5)cnc(OC5CC5)c4cn3)ccc2C(=O)OC1(C)C (single isomer, unassigned) [Compound 43] |
| 1.53 nM | C[C@@H]1c2nc(Nc3cc4c([C@@](C)(O)C5CCC5)cnc(OC5CC5)c4cn3)ccc2C(=O)OC1(C)C (single isomer, unassigned) [Compound 44] |
